Measurements published in publication PMC11542720, “Modelling of chromatographic and electrophoretic behaviour of imidazoline and alpha adrenergic receptors ligands under different acid-base conditions” (ADMET & DMPK, 2024).
Several values for one entry are separate records, joined by “and”; a condition that tells them apart may be missing. Equal entries are not always repeated. Structures can show the parent of a compound that is named as a salt. Where two headings read alike, the source gives them in different places.

Columns and labels:
[1] = RP-HPLC retention on XTerra RP18, methanol/buffer; extrapolated retention factor log kw and slope S; type: physicochemical; settings: for log kw: intercept, extrapolated to 100 % buffer, methanol/buffer, 25 °C; for S (slope): slope of log k vs methanol volume fraction
Method: All measurements were performed at 25°C with a constant flow rate of 0.8 mL min^-1 and UV detection in the range of 200-280 nm. The injection volume was 20 μL. […] The retention factor k was calculated for each mobile phase composition according to Equation (1):
where tr is the retention time of the tested compound and t0 is the dead volume measured with KNO3 as a non-retentive marker. The values corresponding to 100 % of the buffered eluent (log kw) were determined by extrapolation according to Equation (2):
where log kw is the intercept, S is the slope of the regression line, and φ is the volume fraction of the organic modifier in the mobile phase.
The retention behaviour in HPLC system was monitored by calculating extrapolated retention factors log kw corresponding to pure buffer as mobile phase.

[2] = Capillary electrophoresis, effective electrophoretic mobility (acetone as EOF marker); type: physicochemical; settings: for µeff4.4 / μeff4.4 (effective electrophoretic mobility): pH 4.4; for µeff4.4 / µeff7.4 / µeff9.1: I = 25 mmol/L, 11 kV, 25 °C, three replicates; for µeff7.4 / μeff7.4 (effective electrophoretic mobility, text): pH 7.4; for µeff9.1 / μeff9.1 (effective electrophoretic mobility): pH 9.1
Method: All experiments were performed using the SpectraPhoresis 500-capillary electrophoresis system (Spectra Physics Analytical, USA) with UV detector. Data were recorded and analyzed using ChromQuest software version 4.0 (Thermo Finnigan, USA).
The separations were performed with an uncoated fused capillary (total length 31.5 cm, 50 μm id, effective length 24 cm, Polymicro Technologies, USA) applying a voltage of 11 kV and at 25 °C. The samples were injected hydrodynamically and detection was performed in the 200-280 nm range. The new capillary was rinsed stepwise with 0.1 M NaOH (15 min), water (10 min) and a running buffer (10 min). Finally, a 10 min high voltage was applied through the background electrolyte-filled capillary to equalize the inner surface, stabilize the electroosmotic flow and ensure good reproducibility of injections from run to run. […] Between runs, the capillary was rinsed with the background electrolyte for 1 minute.
where Lt is the total length of the capillary (cm), Leff is the effective length of the capillary (cm), U is the applied voltage (V), tm is the migration time of the analyte (s) and teof is the migration time of the electroneutral EOF marker acetone (s). The calculated μeff values (μeff4.4, μeff7.4 and μeff9.1) were used as dependent variables in QSMR analysis.

[3] = cited from earlier work

Row | Structure (SMILES) | log kw ([1]; pH 4.4) | S (slope) ([1]; pH 4.4) | log kw ([1]; pH 7.4) | S (slope) ([1]; pH 7.4) | log kw ([1]; pH 9.1) | S (slope) ([1]; pH 9.1) | µeff4.4 [2] | µeff7.4 [2] | µeff9.1 [2] | μeff9.1 (effective electrophoretic mobility) [2] | pKa experimental ([3]; potentiometric, ref 2 (Supplement reference list)) | log kw ([1]; pH 4.4, listed as carvedilol) | μeff4.4 (effective electrophoretic mobility) [2] | μeff7.4 (effective electrophoretic mobility, text) [2] | μeff7.4 (effective electrophoretic mobility, text) ([2]; listed as clopamide) | pKa experimental ([3]; HPLC, ref 5 (Supplement reference list)) | pKa experimental ([3]; voltammetric, ref 6 (Supplement reference list)) | pKa experimental ([3]; HPLC, ref 7 (Supplement reference list))
1 | N=C(N)NC(=O)c1nc(Cl)c(N)nc1N [Amiloride, Amiloride hydrochloride] | 1.11 ± 0.04 | -3.31 ± 0.09 | 1.05 ± 0.04 | -3.23 ± 0.12 | 0.98 ± 0.04 | -2.74 ± 0.11 | 25.939 ± 0.080 10^-5 cm^2 V^-1 s^-1 | 21.786 ± 0.082 10^-5 cm^2 V^-1 s^-1 | 6.416 ± 0.022 10^-5 cm^2 V^-1 s^-1 |  |  |  |  |  |  |  |  | 
2 | Brc1c(NC2=NCCN2)ccc2nccnc12 [Brimonidine, brimonidine hydrochloride] | 0.99 ± 0.03 | -4.78 ± 0.21 | 1.08 ± 0.03 | -3.20 ± 0.12 | 1.26 ± 0.07 | -3.23 ± 0.19 | 23.357 ± 0.043 10^-5 cm^2 V^-1 s^-1 | 13.247 ± 0.200 10^-5 cm^2 V^-1 s^-1 | 0.000 ± 0.000 10^-5 cm^2 V^-1 s^-1 | zero | 7.50 |  |  |  |  |  |  | 
3 | COc1ccccc1OCCNCC(O)COc1cccc2[nH]c3ccccc3c12 (stereo not drawn) [Carvedilol, carvedilol] | 3.75 ± 0.04 | -5.84 ± 0.07 | 4.15 ± 0.08 | -5.44 ± 0.13 | 4.21 ± 0.10 | -5.56 ± 0.18 | 18.061 ± 0.029 10^-5 cm^2 V^-1 s^-1 | 13.057 ± 0.052 10^-5 cm^2 V^-1 s^-1 | 1.693 ± 0.071 10^-5 cm^2 V^-1 s^-1 |  |  | 3.75 |  |  |  |  |  | 
4 | Clc1cccc(Cl)c1N=C1NCCN1 [Clonidine, Clonidine hydrochloride] | 0.82 ± 0.02 | -2.74 ± 0.05 | 0.98 ± 0.01 | -1.82 ± 0.02 | 1.47 ± 0.01 | -2.71 ± 0.03 | 25.952 ± 0.084 10^-5 cm^2 V^-1 s^-1 | 19.607 ± 0.132 10^-5 cm^2 V^-1 s^-1 | 2.575 ± 0.060 10^-5 cm^2 V^-1 s^-1 |  |  |  |  |  |  |  |  | 
5 | C[C@@H]1CCC[C@H](C)N1NC(=O)c1ccc(Cl)c(S(N)(=O)=O)c1 [Clopamide, clopamide] | 2.00 ± 0.02 | -3.61 ± 0.04 | 1.99 ± 0.03 | -3.59 ± 0.08 | 1.87 ± 0.01 | -3.34 ± 0.02 | 0.000 ± 0.000 10^-5 cm^2 V^-1 s^-1 | 0.000 ± 0.000 10^-5 cm^2 V^-1 s^-1 | -9.640 ± 0.053 10^-5 cm^2 V^-1 s^-1 | negative values of effective mobility |  |  | 0 10^-5 cm^2 / V s and 0.000 ± 0.000 10^-5 cm^2 / V s | zero | 0 10^-5 cm^2 / V s |  |  | 
6 | CN1CCN(C2=Nc3cc(Cl)ccc3Nc3ccccc32)CC1 [Clozapine, clozapine] | 2.94 ± 0.03 | -4.69 ± 0.06 | 3.85 ± 0.05 | -4.88 ± 0.08 | 3.95 ± 0.08 | -5.04 ± 0.15 | 22.697 ± 0.017 10^-5 cm^2 V^-1 s^-1 | 9.204 ± 0.061 10^-5 cm^2 V^-1 s^-1 | 0.000 ± 0.000 10^-5 cm^2 V^-1 s^-1 | zero |  |  |  |  |  | 7.719 ± 0.015 |  | 
7 | COc1cc2nc(N3CCN(C(=O)C4COc5ccccc5O4)CC3)nc(N)c2cc1OC (stereo not drawn) [Doxazosin, doxazosin mesilat] | 3.42 ± 0.07 | -5.56 ± 0.14 | 3.67 ± 0.11 | -5.05 ± 0.19 | 3.60 ± 0.11 | -4.95 ± 0.20 | 15.795 ± 0.013 10^-5 cm^2 V^-1 s^-1 | 3.137 ± 0.075 10^-5 cm^2 V^-1 s^-1 | 0.000 ± 0.000 10^-5 cm^2 V^-1 s^-1 | zero |  |  |  |  |  |  | 6.89 ± 0.57 | 
8 | CCC1(C2=NCCN2)Cc2ccccc2O1 (stereo not drawn) [Efaroxan, efaroxan hydrochloride] | 1.31 ± 0.02 | -3.20 ± 0.04 | 1.33± 0.03 | -3.10 ± 0.14 | 1.85 ± 0.01 | -3.38 ± 0.03 | 24.099 ± 0.035 10^-5 cm^2 V^-1 s^-1 | 22.704 ± 0.075 10^-5 cm^2 V^-1 s^-1 | 16.361 ± 0.178 10^-5 cm^2 V^-1 s^-1 |  |  |  |  |  |  |  |  | 10.02
9 | CN[C@@H](C)[C@H](O)c1ccccc1 [Ephedrine, ephedrine hydrochloride] | 0.56 ± 0.02 | -2.41 ± 0.08 | 0.57± 0.02 | -2.49 ± 0.09 | 1.01 ± 0.02 | -2.52 ± 0.05 | 25.942 ± 0.032 10^-5 cm^2 V^-1 s^-1 | 23.199 ± 0.103 10^-5 cm^2 V^-1 s^-1 | 18.047 ± 0.070 10^-5 cm^2 V^-1 s^-1 |  |  |  |  |  |  |  |  | 
10 | N=C(N)NC(=O)Cc1c(Cl)cccc1Cl [Guanfacine, guanfacine hydrochloride] | 1.73 ± 0.01 | -3.47 ± 0.03 | 1.92 ± 0.12 | -3.21 ± 0.03 | 2.00 ± 0.00 | -3.35 ± 0.01 | 24.242± 0.002 10^-5 cm^2 V^-1 s^-1 | 5.083 ± 0.025 10^-5 cm^2 V^-1 s^-1 | 0.000 ± 0.000 10^-5 cm^2 V^-1 s^-1 | zero |  |  |  | 5.083 ± 0.025 10^-5 cm^2 / V s |  |  |  | 
11 | CC1Cc2ccccc2N1NC(=O)c1ccc(Cl)c(S(N)(=O)=O)c1 (stereo not drawn) [Indapamide, indapamide] | 2.69 ± 0.02 | -4.16 ± 0.06 | 2.55 ± 0.02 | -4.19 ± 0.04 | 2.35 ± 0.03 | -3.78 ± 0.06 | 0.000 ± 0.000 10^-5 cm^2 V^-1 s^-1 | 0.000 ± 0.000 10^-5 cm^2 V^-1 s^-1 | -10.382 ± 0.053 10^-5 cm^2 V^-1 s^-1 | negative values of effective mobility |  |  | 0 10^-5 cm^2 / V s and 0.000 ± 0.000 10^-5 cm^2 / V s |  |  |  |  | 
12 | Cc1cc2c(s1)Nc1ccccc1N=C2N1CCN(C)CC1 [Olanzapine, olanzapine] | 1.64 ± 0.04 | -3.37 ± 0.11 | 3.23 ± 0.07 | -4.37 ± 0.12 | 3.28 ± 0.08 | -4.46 ± 0.14 | 33.632 ± 0.036 10^-5 cm^2 V^-1 s^-1 | 10.679 ± 0.039 10^-5 cm^2 V^-1 s^-1 | 1.241 ± 0.029 10^-5 cm^2 V^-1 s^-1 |  |  |  | 33.632 ± 0.036 10^-5 cm^2 / V s |  |  |  |  | 
13 | CN[C@@H](C)[C@@H](O)c1ccccc1 [Pseudoephedrine, pseudoephedrine hydrochloride] | 0.60 ± 0.03 | -2.60 ± 0.10 | 0.61 ± 0.02 | -2.67 ± 0.12 | 1.10 ± 0.02 | -2.72 ± 0.07 | 26.633 ± 0.043 10^-5 cm^2 V^-1 s^-1 | 23.691 ± 0,051 10^-5 cm^2 V^-1 s^-1 | 9.299 ± 0.058 10^-5 cm^2 V^-1 s^-1 |  |  |  |  |  |  |  |  | 
14 | C1COC(NC(C2CC2)C2CC2)=N1 [Rilmenidine, rilmenidine hemifumarate] | 0.92 ± 0.03 | -2.88 ± 0.09 | 0.90 ± 0.03 | -2.35 ± 0.11 | 1.48 ± 0.02 | -2.96 ± 0.06 | 25.350 ± 0.121 10^-5 cm^2 V^-1 s^-1 | 22.551 ± 0.029 10^-5 cm^2 V^-1 s^-1 | 14.065 ± 0.214 10^-5 cm^2 V^-1 s^-1 |  |  |  |  |  |  |  |  | 
15 | CCOc1ccccc1OCCN[C@H](C)Cc1ccc(OC)c(S(N)(=O)=O)c1 [Tamsulosin, tamsulosin hydrochloride] | 2.22 ± 0.05 | -4.73 ± 0.13 | 2.75 ± 0.04 | -4.51 ± 0.10 | 3.06 ± 0.09 | -4.97 ± 0.20 | 17.310 ± 0.002 10^-5 cm^2 V^-1 s^-1 | 14.444 ± 0.058 10^-5 cm^2 V^-1 s^-1 | 2.472 ± 0.133 10^-5 cm^2 V^-1 s^-1 |  |  |  |  |  |  |  |  | 
16 | Clc1ccc2nsnc2c1NC1=NCCN1 [Tizanidine, tizanidine hydrochloride] | 0.74 ± 0.02 | -2.65 ± 0.06 | 1.12 ± 0.01 | -2.23 ± 0.03 | 1.34 ± 0.01 | -2.63 ± 0.04 | 24.770 ± 0.035 10^-5 cm^2 V^-1 s^-1 | 12.077 ± 0.042 10^-5 cm^2 V^-1 s^-1 | 0.000 ± 0.000 10^-5 cm^2 V^-1 s^-1 | zero |  |  |  |  |  |  |  | 
17 | Cc1cc(C(C)(C)C)cc(C)c1CC1=NCCN1 [Xylometazoline, xylometazoline hydrochloride] | 2.61 ± 0.00 | -4.22 ± 0.01 | 2.59 ± 0.02 | -4.14 ± 0.04 | 2.79 ± 0.08 | -4.17 ± 0.16 | 21.032 ± 0.019 10^-5 cm^2 V^-1 s^-1 | 19.943 ± 0.006 10^-5 cm^2 V^-1 s^-1 | 20.627 ± 0.015 10^-5 cm^2 V^-1 s^-1 |  |  |  |  |  |  |  |  | 
